Data: PMC10629825, “Genetic validation of PfFKBP35 as an antimalarial drug target” (eLife, 2023)

Legend:
Format in all cases: biochemical
[1] = biological target: T1, pre-mRNA-splicing factor CEF1 (Plasmodium falciparum, UniProt Q7KQL1); experiment: isothermal dose-response MS-CETSA on parasite protein lysate (putative target)
T1 construct: gene PF3D7_1033600; endogenous protein in parasite lysate

[2] = biological target: T2, PfFKBP35 (Plasmodium falciparum, UniProt Q8I4V8); experiment: isothermal dose-response MS-CETSA on parasite protein lysate ([…]°C); live-cell CETSA EC50 […]
T2 construct: gene FKBP35; endogenous protein in parasite lysate
T2 sequence (Q8I4V8 whole entry): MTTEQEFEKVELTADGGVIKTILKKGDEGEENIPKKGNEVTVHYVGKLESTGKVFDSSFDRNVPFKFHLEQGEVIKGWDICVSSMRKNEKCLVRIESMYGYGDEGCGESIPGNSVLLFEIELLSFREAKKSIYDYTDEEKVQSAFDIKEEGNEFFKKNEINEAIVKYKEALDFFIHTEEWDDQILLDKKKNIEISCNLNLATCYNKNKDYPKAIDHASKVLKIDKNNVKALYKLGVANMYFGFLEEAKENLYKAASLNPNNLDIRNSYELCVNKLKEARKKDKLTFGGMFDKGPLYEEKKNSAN

[3] = biological target: T3, N6-methyl transferase MT-A70 (Plasmodium falciparum, UniProt Q8I6Z2); experiment: isothermal dose-response MS-CETSA on parasite protein lysate (putative target)
T3 construct: gene PF3D7_0729500; endogenous protein in parasite lysate
T3 sequence (Q8I6Z2 entry or part of it): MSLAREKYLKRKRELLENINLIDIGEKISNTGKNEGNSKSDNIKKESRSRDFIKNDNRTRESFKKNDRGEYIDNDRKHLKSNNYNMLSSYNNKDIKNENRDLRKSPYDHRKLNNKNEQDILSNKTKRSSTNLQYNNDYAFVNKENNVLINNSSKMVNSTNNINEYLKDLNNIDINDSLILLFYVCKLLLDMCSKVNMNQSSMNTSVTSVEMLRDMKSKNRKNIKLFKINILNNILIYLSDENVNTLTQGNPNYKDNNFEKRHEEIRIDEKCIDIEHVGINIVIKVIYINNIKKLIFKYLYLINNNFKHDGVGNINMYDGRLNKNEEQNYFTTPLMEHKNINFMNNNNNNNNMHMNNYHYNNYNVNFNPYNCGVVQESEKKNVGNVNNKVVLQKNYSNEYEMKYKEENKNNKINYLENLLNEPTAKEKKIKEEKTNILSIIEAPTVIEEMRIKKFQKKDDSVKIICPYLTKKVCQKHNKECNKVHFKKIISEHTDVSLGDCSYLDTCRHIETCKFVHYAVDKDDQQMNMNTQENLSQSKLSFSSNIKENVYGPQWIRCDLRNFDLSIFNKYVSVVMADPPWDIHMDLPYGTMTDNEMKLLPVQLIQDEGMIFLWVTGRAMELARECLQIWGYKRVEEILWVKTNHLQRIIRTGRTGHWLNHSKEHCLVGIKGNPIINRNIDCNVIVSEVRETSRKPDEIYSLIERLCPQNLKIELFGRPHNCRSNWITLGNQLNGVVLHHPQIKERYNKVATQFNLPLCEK

T1 sequence (Q7KQL1 entry or part of it): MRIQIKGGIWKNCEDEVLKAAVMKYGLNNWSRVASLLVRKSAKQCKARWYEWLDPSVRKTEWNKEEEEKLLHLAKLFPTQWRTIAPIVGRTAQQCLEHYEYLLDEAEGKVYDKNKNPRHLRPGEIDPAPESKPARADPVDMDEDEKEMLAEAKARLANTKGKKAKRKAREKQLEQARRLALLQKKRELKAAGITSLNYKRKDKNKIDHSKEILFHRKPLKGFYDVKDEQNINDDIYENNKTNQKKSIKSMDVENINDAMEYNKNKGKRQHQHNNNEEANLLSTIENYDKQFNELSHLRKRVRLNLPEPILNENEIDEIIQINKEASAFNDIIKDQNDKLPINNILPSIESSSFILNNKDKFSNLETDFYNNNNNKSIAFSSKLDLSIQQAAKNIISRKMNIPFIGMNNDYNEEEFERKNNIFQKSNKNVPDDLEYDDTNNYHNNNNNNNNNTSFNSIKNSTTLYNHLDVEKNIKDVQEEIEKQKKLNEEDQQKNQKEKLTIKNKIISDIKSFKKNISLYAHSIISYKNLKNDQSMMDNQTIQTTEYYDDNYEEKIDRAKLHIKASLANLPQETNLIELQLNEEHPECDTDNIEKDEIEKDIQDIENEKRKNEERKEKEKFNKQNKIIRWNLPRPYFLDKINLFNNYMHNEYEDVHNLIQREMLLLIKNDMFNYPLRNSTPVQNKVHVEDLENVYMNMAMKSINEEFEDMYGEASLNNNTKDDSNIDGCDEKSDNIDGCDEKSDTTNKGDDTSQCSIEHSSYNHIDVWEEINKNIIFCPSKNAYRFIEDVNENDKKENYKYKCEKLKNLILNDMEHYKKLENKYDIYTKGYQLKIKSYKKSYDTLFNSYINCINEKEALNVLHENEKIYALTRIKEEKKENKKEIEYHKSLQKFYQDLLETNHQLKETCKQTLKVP

C=CC[C@@H]1/C=C(\C)C[C@H](C)C[C@H](OC)[C@H]2O[C@@](O)(C(=O)C(=O)N3CCCC[C@H]3C(=O)O[C@H](/C(C)=C/[C@@H]3CC[C@@H](O)[C@H](OC)C3)[C@H](C)[C@@H](O)CC1=O)[C@H](C)C[C@@H]2OC [FK506]
EC50 [1]: 3100 nM | EC50 [2]: 152 nM | EC50 [3]: 2000 nM
